The source of these data is ChEMBL document CHEMBL3774336, “Identification of spirooxindole and dibenzoxazepine motifs as potent mineralocorticoid receptor antagonists” (Bioorg Med Chem, 2016).

A value given as a limit tells only on which side of the number the result lay.

A word on the IC50: it is the concentration that inhibits the measured activity by half. A word on the inhibition: it is the change of the read-out against control, counted positive when it falls. A high value points to strong suppression. One may read the half-life as the time needed for the level to fall by half in the phase considered. A high value points to slow decline. By Ki is commonly meant a measure of affinity in units of concentration, obtained from inhibition or displacement.

One data set has as its target Cytochrome P450 2C9 (Homo sapiens, UniProt P11712). The experiment in a line: Inhibition of CYP2C9 (unknown origin). It is filed as ADME.
The target of the next data set is Cytochrome P450 2D6 (Homo sapiens, UniProt P10635). The experiment in a line: Inhibition of CYP2D6 (unknown origin). It is filed as ADME.
Sequence of Cytochrome P450 2D6 (P10635 whole entry): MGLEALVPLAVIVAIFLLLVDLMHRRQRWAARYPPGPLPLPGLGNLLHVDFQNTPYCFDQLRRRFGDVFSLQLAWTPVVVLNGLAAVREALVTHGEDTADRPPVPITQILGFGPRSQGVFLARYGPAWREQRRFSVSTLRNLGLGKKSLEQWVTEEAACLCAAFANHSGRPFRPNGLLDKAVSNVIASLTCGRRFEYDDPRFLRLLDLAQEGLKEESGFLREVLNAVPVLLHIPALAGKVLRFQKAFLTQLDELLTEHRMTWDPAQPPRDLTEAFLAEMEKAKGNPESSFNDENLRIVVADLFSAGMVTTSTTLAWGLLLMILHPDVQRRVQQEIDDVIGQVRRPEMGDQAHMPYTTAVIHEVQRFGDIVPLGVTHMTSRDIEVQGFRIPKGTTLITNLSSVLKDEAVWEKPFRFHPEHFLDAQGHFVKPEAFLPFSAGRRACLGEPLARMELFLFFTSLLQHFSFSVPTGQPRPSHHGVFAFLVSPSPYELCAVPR
For data set [1], the target named is 5-hydroxytryptamine receptor 2B (Homo sapiens) (UniProt P41595). As to the kind of experiment: Inhibition of serotonin 5H2B receptor (unknown origin) at 10 uM.
Sequence of 5-hydroxytryptamine receptor 2B (Homo sapiens) (P41595 whole entry): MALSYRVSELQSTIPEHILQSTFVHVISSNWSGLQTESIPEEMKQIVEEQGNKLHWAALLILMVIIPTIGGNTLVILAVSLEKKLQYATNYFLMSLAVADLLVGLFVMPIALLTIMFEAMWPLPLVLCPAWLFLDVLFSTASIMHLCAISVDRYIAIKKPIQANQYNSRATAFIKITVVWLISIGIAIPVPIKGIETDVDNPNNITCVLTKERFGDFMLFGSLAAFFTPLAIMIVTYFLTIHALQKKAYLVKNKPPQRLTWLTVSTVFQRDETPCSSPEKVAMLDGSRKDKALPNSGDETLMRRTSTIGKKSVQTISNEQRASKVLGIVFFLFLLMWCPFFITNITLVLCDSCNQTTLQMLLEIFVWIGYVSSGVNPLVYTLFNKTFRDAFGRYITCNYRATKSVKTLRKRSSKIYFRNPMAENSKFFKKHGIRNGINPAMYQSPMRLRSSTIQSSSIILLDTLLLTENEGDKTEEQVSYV
The target of data set [2] is Histamine H1 receptor (Homo sapiens) (UniProt P35367). As to the kind of experiment: Inhibition of histamine H1 receptor (unknown origin) at 10 uM.
Sequence of Histamine H1 receptor (Homo sapiens) (P35367 whole entry): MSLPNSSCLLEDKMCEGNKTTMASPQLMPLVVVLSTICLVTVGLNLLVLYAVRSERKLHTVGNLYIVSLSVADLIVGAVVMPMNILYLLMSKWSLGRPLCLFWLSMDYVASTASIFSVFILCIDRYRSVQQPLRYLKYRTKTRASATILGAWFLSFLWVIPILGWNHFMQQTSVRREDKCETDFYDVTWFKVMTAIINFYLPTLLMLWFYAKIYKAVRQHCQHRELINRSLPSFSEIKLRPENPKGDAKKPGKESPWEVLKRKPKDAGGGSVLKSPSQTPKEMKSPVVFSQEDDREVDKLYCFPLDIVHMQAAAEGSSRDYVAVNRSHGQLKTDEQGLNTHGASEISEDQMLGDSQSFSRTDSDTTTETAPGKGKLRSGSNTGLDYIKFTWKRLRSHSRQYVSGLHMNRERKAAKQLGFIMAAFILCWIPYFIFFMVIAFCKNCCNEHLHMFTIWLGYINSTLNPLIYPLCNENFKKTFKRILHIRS
Another data set addresses hERG (KCNH2) (Homo sapiens, UniProt Q12809). The experiment in a line: Inhibition of human ERG (unknown origin) at 10 uM.
Data set [3] deals with T1, Alpha-2A adrenergic receptor (Homo sapiens) (UniProt P08913).
T1 sequence (whole entry): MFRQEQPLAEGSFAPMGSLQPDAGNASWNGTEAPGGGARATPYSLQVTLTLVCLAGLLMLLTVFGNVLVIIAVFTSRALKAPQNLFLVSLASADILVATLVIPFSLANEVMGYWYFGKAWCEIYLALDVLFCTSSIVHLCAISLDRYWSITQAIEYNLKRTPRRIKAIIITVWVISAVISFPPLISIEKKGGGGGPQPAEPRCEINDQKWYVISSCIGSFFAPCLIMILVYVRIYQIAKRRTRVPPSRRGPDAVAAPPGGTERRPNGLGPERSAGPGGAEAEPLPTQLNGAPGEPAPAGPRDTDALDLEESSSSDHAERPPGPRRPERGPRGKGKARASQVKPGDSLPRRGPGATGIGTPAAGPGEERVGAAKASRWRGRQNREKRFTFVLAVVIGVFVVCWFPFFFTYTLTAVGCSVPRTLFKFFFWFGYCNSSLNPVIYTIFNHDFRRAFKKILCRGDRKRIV
The experiment in a line: Inhibition of adrenergic alpha2A receptor (unknown origin) at 10 uM.

A short description of data set [4]: Half life of compound in rat liver microsomes. The class given is ADME. A general note: Liver microsomes are vesicles of endoplasmic reticulum, rich in cytochrome P450 enzymes.
The next data set addresses T2, Progesterone receptor (Homo sapiens, UniProt P06401).
T2 sequence (P06401 whole entry): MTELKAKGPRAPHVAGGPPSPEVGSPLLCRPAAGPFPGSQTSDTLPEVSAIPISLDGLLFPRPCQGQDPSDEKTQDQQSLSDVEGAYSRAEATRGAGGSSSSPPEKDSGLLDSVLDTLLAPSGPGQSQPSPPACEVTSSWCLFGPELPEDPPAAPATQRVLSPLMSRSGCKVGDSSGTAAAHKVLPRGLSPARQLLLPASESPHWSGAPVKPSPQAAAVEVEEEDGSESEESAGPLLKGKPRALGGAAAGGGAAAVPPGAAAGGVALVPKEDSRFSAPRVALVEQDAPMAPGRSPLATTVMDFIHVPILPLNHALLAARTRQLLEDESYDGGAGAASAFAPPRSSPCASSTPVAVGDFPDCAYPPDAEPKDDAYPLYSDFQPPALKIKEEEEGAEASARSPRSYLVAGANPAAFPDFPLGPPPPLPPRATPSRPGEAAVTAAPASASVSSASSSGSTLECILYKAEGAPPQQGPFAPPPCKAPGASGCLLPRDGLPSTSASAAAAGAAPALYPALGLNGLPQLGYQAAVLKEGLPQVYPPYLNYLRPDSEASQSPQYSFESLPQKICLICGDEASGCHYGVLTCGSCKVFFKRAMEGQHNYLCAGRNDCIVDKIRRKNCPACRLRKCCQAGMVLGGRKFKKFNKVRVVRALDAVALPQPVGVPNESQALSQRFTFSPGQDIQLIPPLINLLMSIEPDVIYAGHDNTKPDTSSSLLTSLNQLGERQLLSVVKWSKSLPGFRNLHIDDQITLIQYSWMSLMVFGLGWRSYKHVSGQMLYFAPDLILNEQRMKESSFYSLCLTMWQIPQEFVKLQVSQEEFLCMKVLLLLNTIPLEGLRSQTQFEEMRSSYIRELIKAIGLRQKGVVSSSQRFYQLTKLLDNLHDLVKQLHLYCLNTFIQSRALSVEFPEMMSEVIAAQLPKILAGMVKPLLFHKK
The experiment in a line: Inhibition of GST-tagged human progesterone receptor LBD domain expressed in insect cells by Gal4-based fluorescence polarization assay. For orientation: Fluorescence polarisation rises when a labelled molecule tumbles more slowly, as on binding a larger partner.

The target in the next data set is T3, Glucocorticoid receptor (Homo sapiens, UniProt P04150).
T3 sequence (P04150 whole entry): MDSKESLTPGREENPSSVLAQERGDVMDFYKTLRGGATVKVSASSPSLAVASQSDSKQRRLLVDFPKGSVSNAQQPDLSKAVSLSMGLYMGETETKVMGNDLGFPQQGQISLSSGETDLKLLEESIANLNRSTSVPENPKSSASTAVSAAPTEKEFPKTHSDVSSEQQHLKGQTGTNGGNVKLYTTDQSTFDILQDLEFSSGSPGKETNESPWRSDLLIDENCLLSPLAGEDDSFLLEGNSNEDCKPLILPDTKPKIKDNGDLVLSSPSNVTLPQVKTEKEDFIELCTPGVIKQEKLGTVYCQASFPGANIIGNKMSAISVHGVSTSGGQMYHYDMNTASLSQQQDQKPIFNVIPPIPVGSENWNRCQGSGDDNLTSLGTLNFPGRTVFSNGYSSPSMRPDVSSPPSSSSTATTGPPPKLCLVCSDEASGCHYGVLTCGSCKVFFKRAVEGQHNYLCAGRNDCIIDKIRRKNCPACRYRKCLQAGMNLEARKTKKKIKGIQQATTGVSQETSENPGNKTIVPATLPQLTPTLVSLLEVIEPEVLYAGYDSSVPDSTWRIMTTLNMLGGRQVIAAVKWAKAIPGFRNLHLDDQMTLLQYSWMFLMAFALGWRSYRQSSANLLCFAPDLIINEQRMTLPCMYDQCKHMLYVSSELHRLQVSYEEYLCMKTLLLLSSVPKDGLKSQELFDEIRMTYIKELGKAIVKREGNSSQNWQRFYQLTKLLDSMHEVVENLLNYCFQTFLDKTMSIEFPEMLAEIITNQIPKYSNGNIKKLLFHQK
The experiment in a line: Inhibition of GST-tagged human glucocorticoid receptor LBD domain expressed in insect cells at by Gal4-based fluorescence polarization assay.

The target in the next data set is T4, Estrogen receptor (Homo sapiens, UniProt P03372).
T4 sequence (P03372 whole entry): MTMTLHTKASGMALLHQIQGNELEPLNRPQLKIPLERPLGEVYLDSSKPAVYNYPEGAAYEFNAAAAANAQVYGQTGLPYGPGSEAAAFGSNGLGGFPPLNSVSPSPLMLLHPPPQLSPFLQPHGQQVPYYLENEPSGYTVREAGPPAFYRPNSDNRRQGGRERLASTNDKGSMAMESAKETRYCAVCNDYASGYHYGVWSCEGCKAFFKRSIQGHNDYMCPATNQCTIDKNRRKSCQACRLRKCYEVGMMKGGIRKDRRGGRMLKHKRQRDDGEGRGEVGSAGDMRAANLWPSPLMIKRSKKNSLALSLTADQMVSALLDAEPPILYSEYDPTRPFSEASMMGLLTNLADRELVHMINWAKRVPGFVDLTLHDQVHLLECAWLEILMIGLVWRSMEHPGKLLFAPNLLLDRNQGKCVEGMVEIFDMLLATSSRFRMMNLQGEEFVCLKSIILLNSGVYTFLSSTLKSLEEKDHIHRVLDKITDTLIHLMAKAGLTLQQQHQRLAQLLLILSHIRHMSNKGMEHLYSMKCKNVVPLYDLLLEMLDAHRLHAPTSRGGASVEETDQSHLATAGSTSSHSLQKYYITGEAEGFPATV
The experiment in a line: Inhibition of estrogen receptor (unknown origin) by Gal4-based luciferase assay.

Data set [5] concerns the target T5, Mineralocorticoid receptor (Homo sapiens, UniProt P08235, C808S).
In data set [6] the target is T5, Mineralocorticoid receptor. This is another data set of the same source.
For another data set, the target named is Cytochrome P450 3A4 (Homo sapiens, UniProt P08684).
Sequence of Cytochrome P450 3A4 (P08684 whole entry): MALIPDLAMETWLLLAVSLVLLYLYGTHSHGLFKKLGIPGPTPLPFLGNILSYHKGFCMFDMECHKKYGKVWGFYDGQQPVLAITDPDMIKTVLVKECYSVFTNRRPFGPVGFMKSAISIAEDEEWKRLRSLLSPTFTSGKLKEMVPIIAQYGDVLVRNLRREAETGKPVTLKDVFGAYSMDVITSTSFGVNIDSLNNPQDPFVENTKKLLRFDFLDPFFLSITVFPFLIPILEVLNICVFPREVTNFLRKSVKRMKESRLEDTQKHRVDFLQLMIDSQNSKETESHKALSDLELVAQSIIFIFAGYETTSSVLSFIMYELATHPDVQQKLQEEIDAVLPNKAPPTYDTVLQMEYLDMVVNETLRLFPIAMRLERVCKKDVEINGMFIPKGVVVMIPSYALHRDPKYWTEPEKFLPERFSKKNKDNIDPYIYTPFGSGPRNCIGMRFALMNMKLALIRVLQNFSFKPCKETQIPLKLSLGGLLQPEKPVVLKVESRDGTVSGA

T5 sequence (P08235 whole entry C808S): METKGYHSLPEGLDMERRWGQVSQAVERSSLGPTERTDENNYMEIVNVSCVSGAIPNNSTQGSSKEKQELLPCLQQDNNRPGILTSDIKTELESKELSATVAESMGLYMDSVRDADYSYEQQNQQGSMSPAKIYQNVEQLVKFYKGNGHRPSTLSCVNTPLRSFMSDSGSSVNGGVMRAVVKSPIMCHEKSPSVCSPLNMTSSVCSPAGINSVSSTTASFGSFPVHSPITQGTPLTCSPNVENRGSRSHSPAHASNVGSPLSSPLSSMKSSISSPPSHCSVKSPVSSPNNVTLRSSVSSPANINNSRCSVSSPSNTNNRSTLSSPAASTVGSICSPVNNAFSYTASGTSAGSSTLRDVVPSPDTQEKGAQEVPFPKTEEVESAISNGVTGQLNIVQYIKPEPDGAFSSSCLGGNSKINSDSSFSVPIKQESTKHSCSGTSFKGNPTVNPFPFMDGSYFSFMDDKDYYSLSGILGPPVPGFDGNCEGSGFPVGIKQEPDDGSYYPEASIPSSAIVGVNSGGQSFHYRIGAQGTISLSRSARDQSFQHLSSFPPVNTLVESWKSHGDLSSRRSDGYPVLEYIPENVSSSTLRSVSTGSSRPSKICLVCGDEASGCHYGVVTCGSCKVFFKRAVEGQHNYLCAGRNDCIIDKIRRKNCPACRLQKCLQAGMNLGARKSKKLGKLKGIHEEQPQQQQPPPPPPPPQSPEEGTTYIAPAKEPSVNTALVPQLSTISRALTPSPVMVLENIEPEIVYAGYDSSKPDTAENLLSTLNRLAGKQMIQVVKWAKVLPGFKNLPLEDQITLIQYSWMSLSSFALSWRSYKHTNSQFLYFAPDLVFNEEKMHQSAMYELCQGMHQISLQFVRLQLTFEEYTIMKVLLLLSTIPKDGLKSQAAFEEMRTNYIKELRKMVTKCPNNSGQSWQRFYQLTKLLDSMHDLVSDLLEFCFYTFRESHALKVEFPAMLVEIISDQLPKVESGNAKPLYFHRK
Sequence of hERG (KCNH2) (Q12809 whole entry): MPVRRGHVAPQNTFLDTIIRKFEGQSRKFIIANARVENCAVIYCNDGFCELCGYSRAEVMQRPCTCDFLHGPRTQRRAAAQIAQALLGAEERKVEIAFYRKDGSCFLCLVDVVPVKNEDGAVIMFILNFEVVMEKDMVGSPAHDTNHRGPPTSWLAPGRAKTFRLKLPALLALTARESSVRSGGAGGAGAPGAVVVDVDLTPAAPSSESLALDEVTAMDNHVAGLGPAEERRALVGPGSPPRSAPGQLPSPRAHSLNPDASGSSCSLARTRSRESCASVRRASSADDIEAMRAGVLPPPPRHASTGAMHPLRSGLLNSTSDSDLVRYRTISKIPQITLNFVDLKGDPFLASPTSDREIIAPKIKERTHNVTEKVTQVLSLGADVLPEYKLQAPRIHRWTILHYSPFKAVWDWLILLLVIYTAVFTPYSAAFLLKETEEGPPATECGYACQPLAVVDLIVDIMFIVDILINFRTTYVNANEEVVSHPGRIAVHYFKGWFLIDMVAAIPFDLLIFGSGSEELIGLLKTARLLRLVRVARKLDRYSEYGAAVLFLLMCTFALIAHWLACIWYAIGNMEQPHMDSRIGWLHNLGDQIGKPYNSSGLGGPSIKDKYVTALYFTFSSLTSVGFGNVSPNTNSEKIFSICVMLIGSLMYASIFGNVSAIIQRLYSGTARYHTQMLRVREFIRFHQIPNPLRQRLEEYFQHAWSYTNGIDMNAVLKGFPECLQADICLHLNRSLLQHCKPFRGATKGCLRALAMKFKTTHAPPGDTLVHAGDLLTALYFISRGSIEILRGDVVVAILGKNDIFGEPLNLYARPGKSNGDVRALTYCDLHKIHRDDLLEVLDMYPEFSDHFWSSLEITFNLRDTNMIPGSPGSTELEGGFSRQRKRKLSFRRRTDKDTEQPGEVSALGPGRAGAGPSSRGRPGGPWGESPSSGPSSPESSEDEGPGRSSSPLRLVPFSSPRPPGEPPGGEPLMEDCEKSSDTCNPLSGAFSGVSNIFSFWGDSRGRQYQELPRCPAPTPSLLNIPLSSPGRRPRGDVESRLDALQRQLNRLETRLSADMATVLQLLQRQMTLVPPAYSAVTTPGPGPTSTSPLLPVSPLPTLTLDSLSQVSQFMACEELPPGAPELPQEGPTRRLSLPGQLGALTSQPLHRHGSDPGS
Sequence of Cytochrome P450 2C9 (P11712 whole entry): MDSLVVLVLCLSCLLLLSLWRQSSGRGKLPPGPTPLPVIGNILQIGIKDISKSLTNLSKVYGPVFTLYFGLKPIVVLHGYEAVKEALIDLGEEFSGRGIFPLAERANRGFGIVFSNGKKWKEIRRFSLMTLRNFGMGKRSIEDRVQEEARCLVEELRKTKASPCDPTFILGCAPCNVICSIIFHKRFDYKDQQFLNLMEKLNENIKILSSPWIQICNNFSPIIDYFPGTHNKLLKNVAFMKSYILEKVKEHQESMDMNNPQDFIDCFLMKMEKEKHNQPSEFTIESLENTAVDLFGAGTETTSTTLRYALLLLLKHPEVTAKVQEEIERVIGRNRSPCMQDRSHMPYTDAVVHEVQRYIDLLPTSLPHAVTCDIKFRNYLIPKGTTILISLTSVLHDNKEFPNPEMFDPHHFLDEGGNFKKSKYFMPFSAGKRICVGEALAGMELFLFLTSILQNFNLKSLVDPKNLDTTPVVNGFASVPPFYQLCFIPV
Description for Cytochrome P450 3A4: Inhibition of CYP3A4 (unknown origin)

Take `C[N+]1([O-])CCC2(CC1)C(=O)Nc1cc(/C=C3\c4ccccc4COc4cc(F)ccc43)ccc12` (stereo unspecified): the IC50 on Cytochrome P450 2C9 was 17 µM; against Cytochrome P450 2D6 it was above 30 µM; against Progesterone receptor, above 37 µM; against Glucocorticoid receptor, above 37 µM; at Estrogen receptor, above 37 µM; in data set [5], 0.044 µM. The compound further showed an IC50 against Cytochrome P450 3A4 of 26.1 µM. Further, the inhibition turned out to be 66% in data set [1], 65% in [2] and 60% in data set [3]. The compound also gave an inhibition at 10 µM against hERG (KCNH2) of 55%. Also, in data set [4], the half-life is above 1 h. For the same compound, the Ki in data set [6] turned out to be 0.019 µM.
`CC1(C)OC(=S)Nc2ccc(S(=O)(=O)N3c4ccccc4COc4cc(F)ccc43)cc21`: the IC50 against Cytochrome P450 2C9 was 0.397 µM; at Cytochrome P450 2D6, 4.1 µM; against Progesterone receptor, above 2 µM; against Glucocorticoid receptor, 0.651 µM; on Estrogen receptor, above 2 µM; in data set [5], 0.021 µM. Further, on Cytochrome P450 3A4, the IC50 is 0.363 µM. Moreover, the inhibition in data set [1] worked out at 71%; in data set [2], 33%; in data set [3] it was 85%. Moreover, 10 µM produced 48% inhibition on hERG (KCNH2). Besides, the half-life in data set [4] is above 1 h. The compound further registered a Ki in data set [6] of 0.006 µM.
